Test results as given in US20230081426A1, “COMPOUNDS AND METHODS FOR KRAS MODULATION AND INDICATIONS THEREFOR” (Plexxikon Inc., priority 2020, published 2023).

How the values were obtained:
[1] = target: T1, G12D-mutant human KRAS (amino acid residues 1-188) (Homo sapiens, UniProt P01116, G12D); assay: KRAS Binding Disruption Assay (AlphaScreen; biotinylated KRpep-2d analogue or RAF1-RBD), G12D; conditions: KRAS G12D; geometric mean; read-out: KRAS GMean IC50 (uM) MUTATION: G12D
T1 construct: G12D or G12C-mutant human KRAS (amino acid residues 1-188) with FLAG tag; made in house; host or cells: E. coli
In short: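 Mutant KRAS (5-20 nM) incubated 1 h at 25° C with test compound and 5-20 nM biotinylated KRpep-2d analogue or RAF1-RBD in 20 mM HEPES pH 7.5, 100 mM NaCl, 5 mM MgCl2, 0.01% Tween-20, 0.01% BSA.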

[2] = target: T2, G12V-mutant human KRAS (amino acid residues 1-188) (Homo sapiens, UniProt P01116, G12V); assay: KRAS Binding Competition Assay (AlphaScreen; biotinylated KRpep-2d analogue), G12V; conditions: geometric mean, read-out: KRAS GMean IC50 (uM) MUTATION: G12V
T2 construct: G12V-mutant human KRAS (amino acid residues 1-188) with FLAG tag was purified from E. coli; made in house; host or cells: E. coli

| SMILES | IC50 [1] | IC50 [2] |
| --- | --- | --- |
| CN1CCC[C@H]1COc1nc(N2C[C@H]3CC[C@@H](C2)N3C(=O)C2CCC(=O)N2)c2ccc(-c3cc(O)cc4ccccc34)c(F)c2n1 (stereo partly drawn) [P-0396, 5-((1R,5S)-3-(8-fluoro-7-(3-hydroxynaphthalen-1-yl)-2-(((S)-1-methylpyrrolidin-2-yl)methoxy)quinazolin-4-yl)-3,8-diazabicyclo[3.2.1]octane-8-carbonyl)pyrrolidin-2-one] | 0.0001 to 10 µM | 0.0001 to 10 µM |
| CN1CCC[C@H]1COc1nc(N2C[C@H]3CC[C@@H](C2)N3C(=O)CC(N)=O)c2ccc(-c3cc(O)cc4ccccc34)c(F)c2n1 [P-0398, 3-((1R,5S)-3-(8-fluoro-7-(3-hydroxynaphthalen-1-yl)-2-(((S)-1-methylpyrrolidin-2-yl)methoxy)quinazolin-4-yl)-3,8-diazabicyclo[3.2.1]octan-8-yl)-3-oxopropanamide] | 0.0001 to 10 µM | 0.0001 to 10 µM |
| CN1CCC[C@H]1COc1nc(N2C[C@H]3CC[C@@H](C2)N3C(=O)CCC(N)=O)c2ccc(-c3cc(O)cc4ccccc34)c(F)c2n1 [P-0399, 4-((1R,5S)-3-(8-fluoro-7-(3-hydroxynaphthalen-1-yl)-2-(((S)-1-methylpyrrolidin-2-yl)methoxy)quinazolin-4-yl)-3,8-diazabicyclo[3.2.1]octan-8-yl)-4-oxobutanamide] | 0.0001 to 10 µM | 0.0001 to 10 µM |
| CN1CCC[C@H]1COc1nc(N2C[C@H]3CC[C@@H](C2)N3C(=O)C(=O)Nc2ccccn2)c2ccc(-c3cc(O)cc4ccccc34)c(F)c2n1 [P-0400, 2-((1R,5S)-3-(8-fluoro-7-(3-hydroxynaphthalen-1-yl)-2-(((S)-1-methylpyrrolidin-2-yl)methoxy)quinazolin-4-yl)-3,8-diazabicyclo[3.2.1]octan-8-yl)-2-oxo-N-(pyridin-2-yl)acetamide] | 0.0001 to 10 µM | 0.0001 to 10 µM |
| CN1CCC[C@H]1COc1nc(N2C[C@H]3CC[C@@H](C2)N3C(=O)Cn2ccnc2)c2ccc(-c3cc(O)cc4ccccc34)c(F)c2n1 [P-0401, 1-((1R,5S)-3-(8-fluoro-7-(3-hydroxynaphthalen-1-yl)-2-(((S)-1-methylpyrrolidin-2-yl)methoxy)quinazolin-4-yl)-3,8-diazabicyclo[3.2.1]octan-8-yl)-2-(1H-imidazol-1-yl)ethan-1-one] | 0.0001 to 10 µM | 0.0001 to 10 µM |
| CN1CCC[C@H]1COc1nc(N2C[C@H]3CC[C@@H](C2)N3C(=O)Cc2cnn(C)c2)c2ccc(-c3cc(O)cc4ccccc34)c(F)c2n1 [P-0402, 1-((1R,5S)-3-(8-fluoro-7-(3-hydroxynaphthalen-1-yl)-2-(((S)-1-methylpyrrolidin-2-yl)methoxy)quinazolin-4-yl)-3,8-diazabicyclo[3.2.1]octan-8-yl)-2-(1-methyl-1H-pyrazol-4-yl)ethan-1-one] | 0.0001 to 10 µM | 0.0001 to 10 µM |
| CN1CCC[C@H]1COc1nc(N2C[C@H]3CC[C@@H](C2)N3C(=O)[C@H]2CCCN2)c2ccc(-c3cc(O)cc4ccccc34)c(F)c2n1 [P-0403, 4-((1R,5S)-8-(D-prolyl)-3,8-diazabicyclo[3.2.1]octan-3-yl)-8-fluoro-7-(3-hydroxynaphthalen-1-yl)-2-(((S)-1-methylpyrrolidin-2-yl)methoxy)quinazoline] | 0.0001 to 10 µM | 10 to 100 µM |
| CN1CCC[C@H]1COc1nc(N2C[C@H]3CC[C@@H](C2)N3C(=O)C(O)CO)c2ccc(-c3cc(O)cc4ccccc34)c(F)c2n1 (stereo partly drawn) [P-0404, 1-((1R,5S)-3-(8-fluoro-7-(3-hydroxynaphthalen-1-yl)-2-(((S)-1-methylpyrrolidin-2-yl)methoxy)quinazolin-4-yl)-3,8-diazabicyclo[3.2.1]octan-8-yl)-2,3-dihydroxypropan-1-one] | 0.0001 to 10 µM | 10 to 100 µM |
| CN1CCC[C@H]1COc1nc(N2C[C@H]3CC[C@@H](C2)N3S(=O)(=O)N[C@@H]2CCNC2)c2ccc(-c3cc(O)cc4ccccc34)c(F)c2n1 [P-0405, (1R,5S)-3-(8-fluoro-7-(3-hydroxynaphthalen-1-yl)-2-(((S)-1-methylpyrrolidin-2-yl)methoxy)quinazolin-4-yl)-N-((R)-pyrrolidin-3-yl)-3,8-diazabicyclo[3.2.1]octane-8-sulfonamide] | 0.0001 to 10 µM | 10 to 100 µM |
| Cc1cccc2c1N(c1ccc3c(N4C[C@H]5CC[C@@H](C4)N5)nc(OC[C@@H]4CCCN4C)nc3c1)CC(O)C2 (stereo partly drawn) [P-0406, 1-(4-((1R,5S)-3,8-diazabicyclo[3.2.1]octan-3-yl)-2-(((S)-1-methylpyrrolidin-2-yl)methoxy)quinazolin-7-yl)-8-methyl-1,2,3,4-tetrahydroquinolin-3-ol] | 10 to 100 µM | 100 to 1000 µM |
| CN1CCC[C@H]1COc1nc(N2C[C@H]3CC[C@@H](C2)N3C(=O)CS(N)(=O)=O)c2ccc(-c3cc(O)cc4ccccc34)cc2n1 [P-0407, 2-((1R,5S)-3-(7-(3-hydroxynaphthalen-1-yl)-2-(((S)-1-methylpyrrolidin-2-yl)methoxy)quinazolin-4-yl)-3,8-diazabicyclo[3.2.1]octan-8-yl)-2-oxoethane-1-sulfonamide] | 0.0001 to 10 µM | 0.0001 to 10 µM |
| CN(C)S(=O)(=O)CC(=O)N1[C@@H]2CC[C@H]1CN(c1nc(OCC34CCCN3CCC4)nc3c(F)c(-c4cc(O)cc5ccccc45)ccc13)C2 [P-0410, 2-((1R,5S)-3-(8-fluoro-7-(3-hydroxynaphthalen-1-yl)-2-((tetrahydro-1H-pyrrolizin-7a(5H)-yl)methoxy)quinazolin-4-yl)-3,8-diazabicyclo[3.2.1]octan-8-yl)-N,N-dimethyl-2-oxoethane-1-sulfonamide] | 0.0001 to 10 µM | 0.0001 to 10 µM |
| CN(C)CCc1nc(N2C[C@H]3CC[C@@H](C2)N3)c2ccc(-c3cc(O)cc4ccccc34)c(F)c2n1 [P-0413] | 0.0001 to 10 µM | 10 to 100 µM |
| CN1CCN(CCNC(=O)N2[C@@H]3CC[C@H]2CN(c2nc(OCC4CCCN4C)nc4c(F)c(-c5cc(O)cc6ccccc56)ccc24)C3)CC1 (stereo partly drawn) [P-0416, (1R,5S)-3-(8-fluoro-7-(3-hydroxynaphthalen-1-yl)-2-((1-methylpyrrolidin-2-yl)methoxy)quinazolin-4-yl)-N-(2-(4-methylpiperazin-1-yl)ethyl)-3,8-diazabicyclo[3.2.1]octane-8-carboxamide] | 10 to 100 µM | 10 to 100 µM |
| CN1CCCC1COc1nc(N2C[C@H]3CC[C@@H](C2)N3C(=O)NC2COC(C)(C)C2)c2ccc(-c3cc(O)cc4ccccc34)c(F)c2n1 (stereo partly drawn) [P-0417, (1R,5S)-N-(5,5-dimethyltetrahydrofuran-3-yl)-3-(8-fluoro-7-(3-hydroxynaphthalen-1-yl)-2-((1-methylpyrrolidin-2-yl)methoxy)quinazolin-4-yl)-3,8-diazabicyclo[3.2.1]octane-8-carboxamide] | 0.0001 to 10 µM | 0.0001 to 10 µM |
| CCN1CC[C@H](NC(=O)N2[C@@H]3CC[C@H]2CN(c2nc(OCC4CCCN4C)nc4c(F)c(-c5cc(O)cc6ccccc56)ccc24)C3)C1 (stereo partly drawn) [P-0418, (1R,5S)-N-((S)-1-ethylpyrrolidin-3-yl)-3-(8-fluoro-7-(3-hydroxynaphthalen-1-yl)-2-((1-methylpyrrolidin-2-yl)methoxy)quinazolin-4-yl)-3,8-diazabicyclo[3.2.1]octane-8-carboxamide] | 0.0001 to 10 µM | 10 to 100 µM |
